Like-named read-outs stand apart in the source and are kept apart here.
Experiments:
[1] = tested on: ileum isolated from guinea-pig; test: Test of ileum isolated from guinea-pig; settings: Cavia porcellus, agonist activity, Tyrode solution, 37° C., read-out: pD2 (negative logarithm of the dose which produces 50% of the maximum effect) (converted)
Method: Pieces of ileum are removed from guinea-pigs killed by decapitation. The isolated ileum is placed in 10 cm^3 of Tyrode solution at 37° C. and aerated with a mixture of oxygen (95%) and carbon dioxide gas (5%). The contractions due to the products are registered by means of a detector connected to a polygraph. […].
The possible antagonist activity of the products is tested vis-a-vis acetylcholine.
The agonist activity is expressed in pD2 (negative logarithm of the dose which produces 50% of the maximum effect).
The antagonist activity is expressed in DE50 (dose reducing by 50% the maximum response induced by acetylcholine).

in vivo [2] = test: in vivo; set-up: species or system male mice (CD1 Charles Rivers); settings: mouse, in vivo; oral route; male CD1 mice; method of Miller and Tainter; read-out: DE50 (dose which causes diarrhoea in 50% of the animals)
Method: The test is carried out on male mice (CD1 Charles Rivers) weighing 25 to 30 g, which have fasted for 6 hours. The product dissolved at 5% in methocel is administered by oral route by means of an oesophage probe.
Control animals receive only the excipient.
After treatment, the animals are placed separately in cages of which the base is covered with blotting paper, and they are put under observation for 30, 60, 120 and 180 minutes.
The sheets of absorbent paper are changed after each observation.
The consistency of the feces is evaluated according to the method of Randall and Baruth (Arch. Int. Pharmacodyn. 220, 94, 1976) according to the following scale of values.
1: feces slightly soft, with or without a damp halo,
2: feces slightly soft, with a well-defined circle of humidity,
3: feces soft with a large circle of humidity,
4: feces without consistency with a very large circle of humidity.
For each product, the dose is noted which causes diarrhoea in 50% of the animals according to the method of Miller and Tainter (Proc. Soc. Exp. Biol. Med., 57, 261, 1944).

in vivo [3] = settings: mouse, po
Method: The test was carried out on male mice (CD1 Charles Rivers), of 22 to 24 g, without food for 16 hours. […] The mortality is noted during the 7 days following the treatment.

Hypothermic activity = format: in vivo, male mice (CD1 Charles Rivers); settings: Mus musculus, read-out: Effective dose (-1° C.)
Method: (§1) The test is carried out on male mice (CD1 Charles Rivers) weighing 25-30 g, which have fasted for 6 hours.
The temperature of the body is noted by means of a thermocouple inserted about 1.5 cm in the rectum and connected to an electric temperature recorder.
The products are administered by oral or sub-cutaneous route and the temperatures are noted at the instant 0 and at 30 minutes, 1 hour, 2 hours and 2-and-a-half hours after treatment.
The degree of hypothermia is evaluated as the difference between the treated animals and the controls, and the dose necessary to reduce the body temperature by 1° C. is noted.

[4] = Variation of the body temperature (duration of action); format: in vivo, male mice (CD1 Charles Rivers)
Method: as §1
The temperature of the body is noted by means of a thermocouple inserted about 1.5 cm in the rectum and connected to an electric temperature recorder. […]
The duration of action of the products is determined, using the doses able to reduce the temperature by 1° to 1.5° C.

Compound: CON=CC1=CCCN(C(=O)Oc2ccc(F)cc2)C1 [Example 20, 1(4-fluorophenyloxycarbonyl)-1,2,5,6-tetrahydropyridine-3-carboxaldehyde-O-methyloxime]
- EC50 [1]: > 100 µM
- ED50 (in vivo [2]): > 50 mg/kg
- LD50 at 168 h (in vivo [3]): 500 mg/kg
- ED (-1 C) (Hypothermic activity; oral route (O.R.)): 3.2 mg/kg
- ED (-1 C) (Hypothermic activity; sub-cutaneous route (SC.R)): 1.5 mg/kg

Compound: CON=CC1=CCCN(C(=O)Oc2ccc(C(C)C)cc2)C1 [Example 13, Methyl ether of 1-p-isopropylphenyloxycarbonyl-1,2,5,6-tetrahydropyridin-3-carboxaldehyde oxime]
- EC50 [1]: > 100 µM
- ED50 (in vivo [2]): > 50 mg/kg
- Variations of the body temperature ([4]; 6.25 mg/kg os, 0 min): +0.2 °C
- Variations of the body temperature ([4]; 6.25 mg/kg os, 30 min): -0.4 °C
- Variations of the body temperature ([4]; 6.25 mg/kg os, 60 min): -1.6 °C
- Variations of the body temperature ([4]; 6.25 mg/kg os, 120 min): -0.4 °C
- Variations of the body temperature ([4]; 6.25 mg/kg os, 180 min): -0.1 °C
- Variations of the body temperature ([4]; 12.5 mg/kg sc, 0 min): +0.2 °C
- Variations of the body temperature ([4]; 12.5 mg/kg sc, 60 min): -0.7 °C
- Variations of the body temperature ([4]; 12.5 mg/kg sc, 120 min): -1.4 °C
- Variations of the body temperature ([4]; 12.5 mg/kg sc, 180 min): -1.1 °C
- LD50 at 168 h (in vivo [3]): > 1000 mg/kg
- ED (-1 C) (Hypothermic activity; oral route (O.R.)): 3.4 mg/kg
- ED (-1 C) (Hypothermic activity; sub-cutaneous route (SC.R)): 8.8 mg/kg

Compound: CON=CC1=CCCN(C(=O)Oc2ccc(Cl)cc2)C1 [Example 12, Methyl ether of 1-parachlorophenyloxy-carbonyl-1,2,5,6-tetrahydropyridin-3-carboxaldehyde oxime]
- EC50 [1]: > 100 µM
- ED50 (in vivo [2]): > 50 mg/kg
- Variations of the body temperature ([4]; 3.12 mg/kg os, 0 min): +0.1 °C
- Variations of the body temperature ([4]; 3.12 mg/kg os, 30 min): -0.9 °C
- Variations of the body temperature ([4]; 3.12 mg/kg os, 60 min): -1.4 °C
- Variations of the body temperature ([4]; 3.12 mg/kg os, 120 min): -0.3 °C
- Variations of the body temperature ([4]; 3.12 mg/kg sc, 0 min): -0.1 °C
- Variations of the body temperature ([4]; 3.12 mg/kg sc, 30 min): -0.1 °C
- Variations of the body temperature ([4]; 3.12 mg/kg sc, 60 min): -1.1 °C
- Variations of the body temperature ([4]; 3.12 mg/kg sc, 120 min): -1.2 °C
- Variations of the body temperature ([4]; 3.12 mg/kg sc, 180 min): -0.5 °C
- LD50 at 168 h (in vivo [3]): > 1000 mg/kg
- ED (-1 C) (Hypothermic activity; oral route (O.R.)): 2.2 mg/kg
- ED (-1 C) (Hypothermic activity; sub-cutaneous route (SC.R)): 2.9 mg/kg

Compound: CCOC(=O)N1CCC=C(C=NOC)C1 [Example 2, Methyl ether of 1-ethoxycarbonyl-1,2,5,6-tetrahydropyridin-3-carboxaldehydeoxime]
- EC50 [1]: 33.9 µM
- ED50 (in vivo [2]): 25 mg/kg
- Variations of the body temperature ([4]; 5. mg/kg os, 0 min): +0.2 °C
- Variations of the body temperature ([4]; 5. mg/kg os, 30 min): -1.2 °C
- Variations of the body temperature ([4]; 5. mg/kg os, 60 min): -1.1 °C
- Variations of the body temperature ([4]; 5. mg/kg os, 120 min): -0.1 °C
- Variations of the body temperature ([4]; 5. mg/kg sc, 0 min): +0.2 °C
- Variations of the body temperature ([4]; 5. mg/kg sc, 30 min): -1.5 °C
- Variations of the body temperature ([4]; 5. mg/kg sc, 60 min): -1.4 °C
- Variations of the body temperature ([4]; 5. mg/kg sc, 120 min): -0.1 °C
- LD50 at 168 h (in vivo [3]): 175 mg/kg
- ED (-1 C) (Hypothermic activity; oral route (O.R.)): 3.9 mg/kg
- ED (-1 C) (Hypothermic activity; sub-cutaneous route (SC.R)): 3.6 mg/kg

Compound: CON=CC1=CCCN(C(=O)Oc2ccc(Br)cc2)C1 [Example 19, 1-(4-bromophenyloxycarbonyl)-1,2,5,6-tetrahydropyridine-3-carboxaldehyde-O-methyloxime]
- EC50 [1]: > 100 µM
- ED50 (in vivo [2]): > 50 mg/kg
- LD50 at 168 h (in vivo [3]): > 1000 mg/kg
- ED (-1 C) (Hypothermic activity; oral route (O.R.)): 1.7 mg/kg
- ED (-1 C) (Hypothermic activity; sub-cutaneous route (SC.R)): 1.3 mg/kg

Compound: CON=CC1=CCCN(C(=O)Oc2ccccc2)C1 [Example 6, Methyl ether of 1-phenyloxycarbonyl-1,2,5,6-tetrahydropyridin-3-carboxaldehyde oxime]
- EC50 [1]: > 100 µM
- ED50 (in vivo [2]): 100 mg/kg
- Variations of the body temperature ([4]; 3.5 mg/kg sc, 0 min): -0.1 °C
- Variations of the body temperature ([4]; 3.5 mg/kg sc, 30 min): -0.6 °C
- Variations of the body temperature ([4]; 3.5 mg/kg sc, 60 min): -1.4 °C
- Variations of the body temperature ([4]; 3.5 mg/kg sc, 120 min): -0.9 °C
- Variations of the body temperature ([4]; 3.5 mg/kg sc, 180 min): 0.1 °C
- Variations of the body temperature ([4]; 7.5 mg/kg os, 0 min): -0.1 °C
- Variations of the body temperature ([4]; 7.5 mg/kg os, 30 min): -1.1 °C
- Variations of the body temperature ([4]; 7.5 mg/kg os, 60 min): -1.6 °C
- Variations of the body temperature ([4]; 7.5 mg/kg os, 120 min): -0.6 °C
- LD50 at 168 h (in vivo [3]): 500 mg/kg
- ED (-1 C) (Hypothermic activity; oral route (O.R.)): 4.6 mg/kg
- ED (-1 C) (Hypothermic activity; sub-cutaneous route (SC.R)): 2.3 mg/kg

Source: patent US5231107A, “Derivatives of the oxime of 1,2,5,6-tetrahydropyridine 3-carboxaldehyde, the process for their preparation, their use as medicaments and the compositions containing them” (priority 1987, dated 1993)
